Laboratory results as given in US5736629A, “Herbicide resistant rice” (priority 1997, dated 1998).

Columns and labels:
Type in all cases: in vivo
ATCC 75295 rice line = experiment: Field plot test with AHAS-inhibiting herbicides, ATCC 75295
Procedure: The resistance of these plants to several other AHAS-inhibiting herbicides was also tested. Nine-foot-long field plots were planted with seven rows of rice per plot. The test included nine check rice varieties, and the ATCC 75295 rice line. A shielded spray boom was used to apply herbicide, spraying six of the seven rows in each plot. The four herbicides used were Pursuit (imazethapyr: (±)-2-[4,5-dihydro-4-methyl-4-(1-methylethyl)-5-oxo-1H-imidazol-2-yl]-5-ethyl-3-pyridinecarboxylic acid); Scepter (imazaquin: 2-[4,5-dihydro-4-methyl-4-(1-methylethyl)-5-oxo-1H-imidazol-2-yl]-3-quinolinecarboxylic acid); Accent (nicosulfuron: 2-(((((4,6-dimethoxypyrimidin-2-yl)aminocarbonyl)) aminosulfonyl))-N,N-dimethyl-3-pyridinecarboxamide); and Beacon (primisulfuron: 3-[4,6-bis(difluoromethoxy)-pyrimidin-2-yl]-1-(2-methoxycarbonylphenylsulfonyl)urea). The herbicides were applied to two replicate plots for each herbicide when the rice was at the three-leaf stage of maturity. Two replicate plots of each check variety and of the resistant line were left unsprayed as controls. The Accent treatment used 0.67 ounce of product (0.50 ounce active ingredient) per acre, with 0.25% nonionic surfactant. The Pursuit treatment used four ounces of product (1.00 ounce active ingredient) per acre, with 0.25% nonionic surfactant. The Scepter treatment used one pint of product (3.00 ounces active ingredient) per acre, with 0.25% nonionic surfactant. The Beacon treatment used 0.76 ounce of product (0.57 ounce active ingredient) per acre, with 0.25% nonionic surfactant. […] A similar test with the same rice varieties and the ATCC 75295 line was conducted at the five-leaf stage of development (i.e., plants fifteen days older than in the test described above), using Accent and Pursuit at the rates given above. […] The ATCC 75295 line was resistant only when herbicide was applied post-emergence.

[1] = tested on: progeny of the mutant rice plant (ATCC 97523); experiment: Subsequent greenhouse and field testing of progeny of the surviving plant; conditions: herbicides applied either pre-emergence or post-emergence
Excerpt: (Imazamox is sold by American Cyanamid under the trade name Raptor, and has as active ingredient (+)-5-methoxymethyl-2-(4-isopropyl-4-methyl-5-oxo-2-imidazolin-2-yl) nicotinic acid. Imazameth is sold by American Cyanamid under the trade name Cadre, and has as active ingredient (±)-2-[4,5-dihydro-4-methyl-4-(1-methyl-ethyl)-5-oxo-1H-imidazol-2-yl]- 5-methyl-3-pyridinecarboxylicacid;alternatechemicalname (±)-2-(4-isopropyl-4-methyl-5-oxo-2-imidazolin-2-yl)-5-methylnicotinic acid). Imazapyr is sold by American Cyanamid under the trade name Arsenal, and has active ingredient 2-[4,5-dihydro-4-methyl-4-(1-methylethyl)-5-oxo-1H-imidazol-2-yl]-3-pyridinecarboxylic acid) This line is resistant to herbicides applied either pre-emergence or post-emergence.

[2] = tested on: mutagenised rice seedlings of ten rice varieties; experiment: Field screen of mutagenised rice seedlings, all other plants; conditions: 2X treatment: nicosulfuron 0.063 lb a.i. per acre, imazethapyr 0.125 lb a.i. per acre; 0.25% non-ionic surfactant; 3-4 leaf stage; about four weeks later
Excerpt: The second resistance mechanism resulted from inducing mutations in seeds of each of ten rice varieties. Mutations were induced by exposure either to gamma rays or to the chemical mutagen ethyl methanesulfonate (EMS). Ten-pound lots of seed of each variety were subjected to 25 k-rad of gamma irradiation from a Cobalt-60 source at the Nuclear Science Center, Louisiana State University, Baton Rouge, La. prior to planting. An additional ten pounds of seed of each variety was divided into three equal portions; and each portion was soaked for 16 hours in either 0.1%, 0.5%, or 1% EMS immediately prior to planting. Several hundred pounds of seed were harvested from plants grown from the seeds subjected to these mutagenic treatments.
The following spring the harvested seed was planted in strips in a field planting occupying a total of about three acres. At the 3-4 leaf stage of seedling development, herbicides were applied to screen for herbicide-resistant mutants. Half of the seedlings of each variety were sprayed with a 2X treatment of nicosulfuron, and half were sprayed with a 2X treatment of imazethapyr, in both cases by a tractor-mounted sprayer. Nicosulfuron was applied at the rate of 0.063 lb active ingredient (a.i.) per acre, and imazethapyr was applied at 0.125 lb a.i. per acre. Non-ionic surfactant (0.25%) was added to each spray solution. […]

[3] = five-leaf stage (plants fifteen days older), same rates as in the three-leaf test
[4] = three-leaf stage, per acre a.i.: Accent 0.50 ounce, Pursuit 1.00 ounce, Scepter 3.00 ounces, Beacon 0.57 ounce, 0.25% nonionic surfactant
[5] = subsequent tests (data not shown)

SMILES	Resistance of the rice line (in words) (ATCC 75295 rice line; [3])	Resistance of the rice line (in words) (ATCC 75295 rice line; [4])	Resistance of the rice line (in words) [1]	Resistance of the rice line (in words) (ATCC 75295 rice line; [5])	Symptoms of injury (in words) [2]
CC(C)C1(C)N=C(c2nc3ccccc3cc2C(=O)O)NC1=O (stereo not shown) [imazaquin, 2-[4,5-dihydro-4-methyl-4-(1-methylethyl)-5-oxo-1H-imidazol-2-yl]-3-quinolinecarboxylic acid]	good resistance	good resistance	resistance	–	–
CC(C)C1(C)N=C(c2ncccc2C(=O)O)NC1=O (stereo not shown) [imazapyr, 2-[4,5-dihydro-4-methyl-4-(1-methylethyl)-5-oxo-1H-imidazol-2-yl]-3-pyridinecarboxylic acid]	–	–	resistance	exhibited resistance	–
COCc1cnc(C2=NC(C)(C(C)C)C(=O)N2)c(C(=O)O)c1 (single isomer, unassigned; (+)) [imazamox, (+)-5-methoxymethyl-2-(4-isopropyl-4-methyl-5-oxo-2-imidazolin-2-yl) nicotinic acid]	–	–	resistance	–	–
COc1cc(OC)nc(NC(=O)NS(=O)(=O)c2ncccc2C(=O)N(C)C)n1 [nicosulfuron, 2-(((((4,6-dimethoxypyrimidin-2-yl)aminocarbonyl))aminosulfonyl))-N,N-dimethyl-3-pyridinecarboxamide]	excellent resistance	excellent resistance	resistance	–	either severely injured or dead
Cc1cnc(C2=NC(C)(C(C)C)C(=O)N2)c(C(=O)O)c1 (racemic) [imazameth, (±)-2-[4,5-dihydro-4-methyl-4-(1-methyl-ethyl)-5-oxo-1H-imidazol-2-yl]-5-methyl-3-pyridinecarboxylicacid]	–	–	resistance	exhibited resistance	–
COC(=O)c1ccccc1S(=O)(=O)NC(=O)Nc1nc(OC(F)F)cc(OC(F)F)n1 [primisulfuron, 3-[4,6-bis(difluoromethoxy)-pyrimidin-2-yl]-1-(2-methoxycarbonylphenylsulfonyl)urea]	–	lower, but still significantly greater than that of the check rice varieties	–	–	–
